Here are results for eleven compounds from patent US20230133169A1, “EGFR INHIBITOR, COMPOSITION, AND METHOD FOR PREPARATION THEREOF” (BETTA PHARMACEUTICALS CO., LTD, priority 2019, published 2023).

Data set [1] relates to A431 wild-type cell line. The data set can be described thus: A431 wild-type cell proliferation assay (CellTiter Glo). Type of data set: cell-based. To be noted: Homo sapiens, A-431, 72 hours, CTG luminescence. As to the method:
(§1) RPMI 1640, 10% FBS and 1% PS; DMEM, 10% FBS and 1% PS
(§2) a) The medium was preheated in a 37° C. water bath in advance.
(§3) b) Remove the cryogenic vials from the liquid nitrogen tank, quickly put it into a 37° C. water bath, and completely melt it in 1 min.
(§4) c) Transfer the cell suspension to a 15 mL centrifuge tube containing 8 mL of medium, and centrifuge at 1000 rpm for 5 min.
(§5) d) Discard the supernatant, resuspend the cells in 1 mL of culture medium, transfer it to a 75 cm^2 flask containing 15 mL of culture medium, and culture the cells in a incubator with 5% CO2 at 37° C.
(§6) b) Collect the cells in a 15 mL centrifuge tube and centrifuge at 1000 rpm for 5 min. Discard the supernatant, count to make the cell density at 1×10^4 cells/mL, and then place it in a incubator with 5% CO2 at 37° C.
(§7) a) Dilute the test compound (20 mM stock solution) to 10 mM with 100% DMSO as the starting concentration, and then serially dilute 3 times with a “9+0” concentration in 96-well dilution plate (Cat #P-05525, Labcyte);
(§8) b) Dilute compound solution thereof to 1:100 in medium to prepare 10-fold working solution.
(§9) a) Centrifuge the growth cells in logarithmic phase at 1000 rpm for 5 minutes, resuspend the cells in culture medium, and then count the cells;
(§10) b) Inoculate the cells into a 96-well cell culture plate with a density of 2000 cells/well;
(§11) a) 15 μl of compounds prepared at step 2 were added to cell plate, the final concentrations were […], 370.4, 123.5, 41.2, 13.7, 4.6, 1.5 and 0 nM, and the final concentration of DMSO was 0.1%. The blank control well was a culture medium (0.1% DMSO);
(§12) b) Incubate cells in an incubator for another 72 hours;
(§13) a) Take out the 96-well cell culture plate and add 50 μl of CTG reagent (CellTiter Glo kit, promega, Cat#G7573);
(§14) b) Shake the plate for 2 minutes and let cool at room temperature for 10 minutes;
(§15) c) Read luminous signal value with PerkinElmer reader.
(§16) The data were analyzed by GraphPad Prism 6.0 software to obtain the fitting curve of compound activity.
(§17) Fitting compound IC50 from nonlinear regression equation:
(§18) Y=Min+(Max−Min)/(1+10^((Log IC50−X)*slope));
(§19) X: Logarithm of compound concentration; Y: luminous signal value.

The target of data set [2] is Ba/F3-Δ19del/T790M/C797S cells (Homo sapiens, UniProt P00533, T790M/C797S, cells depend on it, form not given). The data set can be described thus: Ba/F3-Δ19del/T790M/C797S cell proliferation assay (CellTiter Glo). It is filed as cell-based. To be noted: 72 hours, CTG luminescence, read-out: BaF3 Δ19del/T790M/C797S IC50. As to the method: as §1, §2, §3, §4, §5, §6, §7, §8, §9, §10, §11, §12, §13, §14, §15, §16, §17, §18, §19
Chain of Ba/F3-Δ19del/T790M/C797S cells (P00533 with tags, fused parts or gaps DEL746-750/T790M/C797S, form open): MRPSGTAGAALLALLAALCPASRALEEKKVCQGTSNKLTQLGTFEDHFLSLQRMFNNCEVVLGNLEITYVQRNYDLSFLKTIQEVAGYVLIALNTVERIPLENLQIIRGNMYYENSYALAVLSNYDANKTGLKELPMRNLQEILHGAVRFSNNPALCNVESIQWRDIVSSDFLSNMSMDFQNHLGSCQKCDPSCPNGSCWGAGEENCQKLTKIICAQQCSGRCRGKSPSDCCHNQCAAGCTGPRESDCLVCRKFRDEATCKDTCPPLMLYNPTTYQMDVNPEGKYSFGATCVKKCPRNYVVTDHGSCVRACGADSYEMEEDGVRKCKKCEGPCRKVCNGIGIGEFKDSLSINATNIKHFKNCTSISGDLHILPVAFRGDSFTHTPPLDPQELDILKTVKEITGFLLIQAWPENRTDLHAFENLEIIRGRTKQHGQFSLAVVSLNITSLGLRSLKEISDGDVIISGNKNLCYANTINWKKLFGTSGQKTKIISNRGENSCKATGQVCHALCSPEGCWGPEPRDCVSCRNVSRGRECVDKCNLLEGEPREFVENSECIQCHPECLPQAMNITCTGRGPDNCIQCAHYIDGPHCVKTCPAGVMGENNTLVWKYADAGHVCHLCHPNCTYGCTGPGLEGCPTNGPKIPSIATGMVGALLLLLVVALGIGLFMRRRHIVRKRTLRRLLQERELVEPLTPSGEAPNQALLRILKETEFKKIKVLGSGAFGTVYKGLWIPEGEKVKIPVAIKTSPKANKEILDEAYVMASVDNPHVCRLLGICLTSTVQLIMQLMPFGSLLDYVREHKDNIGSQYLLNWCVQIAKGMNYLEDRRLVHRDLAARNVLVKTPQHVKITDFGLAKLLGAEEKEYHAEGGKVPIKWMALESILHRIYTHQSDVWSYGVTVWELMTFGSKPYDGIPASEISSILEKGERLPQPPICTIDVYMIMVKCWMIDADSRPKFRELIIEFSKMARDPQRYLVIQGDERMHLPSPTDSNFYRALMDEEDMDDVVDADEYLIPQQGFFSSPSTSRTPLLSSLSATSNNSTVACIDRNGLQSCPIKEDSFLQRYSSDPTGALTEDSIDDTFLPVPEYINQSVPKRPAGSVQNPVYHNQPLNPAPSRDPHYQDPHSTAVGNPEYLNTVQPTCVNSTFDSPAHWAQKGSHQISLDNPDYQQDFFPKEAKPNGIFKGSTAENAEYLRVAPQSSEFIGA

The nature of data set [3]: Pharmacokinetic experiment in rats, oral administration. It is filed as in vivo. To be noted: Sprague-Dawley (SD), rat, 5 mg/kg, male SD rats, 5 mpk, plasma. On the procedure: Test 3 Pharmacokinetic Experiment
Male SD rats (3 rats in each group) were administered orally, and fasted overnight from at least 12 hours before administration to 4 hours after administration before the experiment. Blood was taken from the orbital vein. The time points of blood collection for oral administration were: 15 min, 30 min, 1 hr, 2 hr, 4 hr, 7 hr and 24 hr, the dosage of administration was 5 mpk, and the blood collection volume was 300 μL. After anticoagulant treatment with 2.0% EDTA, the blood was centrifuged at 4000 rpm for 5 min, and then about 100 μL was taken and placed for testing at −20° C. Plasma samples were analyzed by liquid chromatography tandem mass spectrometry (LC-MS/MS). The plasma concentration-time data of individual animals were analyzed by the non-compartment model of WinNonlin (V4.1, Pharsight) software, and the pharmacokinetic parameters of the compounds tested were calculated.

The target in data set [4] is EGFR Δ19del/T790M/C797S (Homo sapiens, UniProt P00533, T790M/C797S, form not given). Briefly: EGFR Δ19del/T790M/C797S kinase test (mobility variation analysis, Caliper EZ Reader). Type of data set: biochemical. Particulars: kinase inhibition, top concentration 300 nM. On the procedure: Mobility variation analysis was performed to determine the affinity of the compound for EGFRΔ19del/T790M/C797S. The enzymatic reaction scheme is as follows:
1. Prepare 1*kinase buffer as follows.
2. Prepare compound concentration gradient: The test compound was tested at concentration of 300 nM, diluted with 100% DMSO solution in a 96-well plate to 100-fold final concentration, and then diluted to 3-fold concentration with Precision.10. Compound at each concentration was further diluted to 5-fold final concentration of intermediate dilution.
3. Add 5 μL of each prepared intermediate dilution compounds to the compound wells of 384-well plate respectively, and test the repeated wells of each concentration; add 5 μL of 5% DMSO into the negative control well and the positive control well respectively.
4. Prepare 2.5-fold final concentration of kinase solution with 1×Kinase buffer.
5. Add 10 μL of 2.5-fold final concentration of kinase solution to the compound well and the positive control well; add 10 μL of 1×Kinase buffer to the negative control well.
6. Centrifuge at 1000 rpm for 30 s, shake the reaction plate for well mixing, and then incubate at room temperature for 10 minutes.
7. Prepare a mixture of ATP and Kinase substrate (5-FAM-EEPLYWSFPAKKK-CONH2) at 2.5-fold final concentration with 1×Kinase buffer.
8. Add 10 μL mixture of ATP and substrate at 2.5-fold final concentration to start reaction.
9. Centrifuge the 384-well plate at 1000 rpm for 30 s, shake it well and then incubate it at room temperature for corresponding time.
10. Add 30 μL of stop detection solution to stop the kinase reaction, centrifuge at 1000 rpm for 30 s, and shake it well.
11. Read conversion rate with Caliper EZ Reader.
Convert the conversion rate to inhibition rate:
inhibition %=(max−conversion % sample)/(max−min)*100.
“max”: Mean value of negative control wells; “min”: Mean value of positive control wells; conversion % sample: Sample conversion reading.
GraphPad Prism 5 was used for % inhibition curve fitting to obtain the IC50 value.
The calculation formula: Y=inhibition %_min+(inhibition %_max−inhibition %_min)/(1+(IC50/X)^slope). wherein, Y is inhibition %; X is concentration of compound to be tested.

Chain of EGFR Δ19del/T790M/C797S (P00533 with tags, fused parts or gaps DEL746-750/T790M/C797S, form open): as above

For the compound `CCc1cc(Nc2ncc(Br)c(Nc3ccc(C4CC4)cc3P(C)(C)=O)n2)c(OC)cc1N1CCC(N2CCN(C)CC2)CC1` [Compound 1, (2-((5-Bromo-2-((5-ethyl-2-methoxy-4-(4-(4-methylpiperazin-1-yl)piperidin-1-yl)phenyl)amino)pyrimidin-4-yl)amino)-5-cyclopropylphenyl)dimethylphosphine oxide], the IC50 worked out at 682 nM in data set [1] and 0.3 nM in data set [4]. The GI50 in data set [2] was determined as 1.2 nM. The compound further had an exposure AUC(0-t) in data set [3] of 32900 ng·h/mL. In addition, in data set [3], the Cmax is 2100 ng/mL. For the same compound, the half-life in data set [3] (read-out: t½ (converted)) was 9.1 h.
Regarding `CCn1cc(-c2cc(Nc3ncc(Br)c(Nc4ccc(C5CC5)cc4P(C)(C)=O)n3)c(OC)cc2N2CCC(N3CCN(C)CC3)CC2)cn1` [Compound 2], the values for the 50% inhibitory concentration (IC50) in data set [1] and in data set [4] were 268 nM and 0.4 nM, respectively. In addition, the GI50 in data set [2] is 7.2 nM.
For the compound `CCn1cc(-c2cc(Nc3ncc(OC)c(Nc4ccc(C5CC5)cc4P(C)(C)=O)n3)c(OC)cc2N2CCC(N3CCN(C)CC3)CC2)cn1` [Compound 3, (5-Cyclopropyl-2-((2-((5-(1-ethyl-1H-pyrazol-4-yl)-2-methoxy-4-(4-(4-methylpiperazin-1-yl)piperidin-1-yl)phenyl)amino)-5-methoxypyrimidin-4-yl)amino)phenyl)dimethylphosphine oxide], the IC50 in data set [1] turned out to be 830 nM; in data set [4], 0.4 nM. Moreover, the GI50 in data set [2] amounted to 55.4 nM.
Consider `COc1cc(N2CCC(N3CCN(C)CC3)CC2)ccc1Nc1ncc(Cl)c(Nc2ccc(C3CC3)cc2P(C)(C)=O)n1` [Compound 4], for which half-maximal inhibition in data set [4] (IC50) was put at 1.2 nM. That is a single-digit nanomolar value.
Consider `CCc1cc(Nc2ncc(OC)c(Nc3ccc(C4CC4)cc3P(C)(C)=O)n2)c(OC)cc1N1CCC(N2CCN(C)CC2)CC1` [Compound 5], for which the GI50 in data set [2] is 302 nM. The compound also returned an IC50 in data set [4] of 1.6 nM.
`CCc1cc(Nc2ncc(Br)c(Nc3ccc(C4CCOCC4)cc3P(C)(C)=O)n2)c(OC)cc1N1CCC(N2CCN(C)CC2)CC1` [Compound 6, (2-((5-Bromo-2-((5-ethyl-2-methoxy-4-(4-(4-methylpiperazin-1-yl)piperidin-1-yl)phenyl)amino)pyrimidin-4-yl)amino)-5-(tetrahydro-2H-pyran-4-yl)phenyl)dimethylphosphine oxide]: the figures for the IC50 in data set [1] and in data set [4] were 674 nM and 0.7 nM, respectively. Also, the GI50 in data set [2] is 15.6 nM.
`CCc1cc(Nc2ncc(Cl)c(Nc3ccc(C4CCCC4)cc3P(C)(C)=O)n2)c(OC)cc1N1CCC(N2CCN(C)CC2)CC1` [Compound 7, (2-((5-Chloro-2-((5-ethyl-2-methoxy-4-(4-(4-methylpiperazin-1-yl)piperidin-1-yl)phenyl)amino)pyrimidin-4-yl)amino)-5-cyclopentylphenyl)dimethylphosphine oxide]: the IC50 in data set [1] worked out at 1400 nM; in data set [4] it was 1.1 nM. In addition, the GI50 in data set [2] came out at 38.3 nM.
Consider `CCc1cc(Nc2ncc(Br)c(Nc3ccc(N4CCOCC4)cc3P(C)(C)=O)n2)c(OC)cc1N1CCC(N2CCN(C)CC2)CC1` [Compound 8], for which the IC50 came to 886 nM in data set [1] and 0.3 nM in data set [4]. Also, in data set [2], the GI50 was 30.4 nM.
The like results for `COc1cc(N2CCC(N3CCN(C)CC3)CC2)c(-c2ccn(C)c2)cc1Nc1ncc(Br)c(Nc2ccc(C3CC3)cc2P(C)(C)=O)n1` [Compound 9, (2-((5-Bromo-2-((2-methoxy-5-(1-methyl-1H-pyrrol-3-yl)-4-(4-(4-methylpiperazine-1-yl)piperidin-1-yl)phenyl)amino)pyrimidin-4-yl)-amino)-5-cyclopropylphenyl)dimethylphosphine oxide] were, in that order, 604 nM, 0.3 nM and 5.2 nM.
The like results for `COc1cc(N2CCC(N3CCN(C)CC3)CC2)c(C)cc1Nc1ncc(Br)c(Nc2ccc(C3CC3)cc2P(C)(C)=O)n1` [Compound 10, (2-((5-Bromo-2-((2-methoxy-5-methyl-4-(4-(4-methylpiperazin-1-yl)piperidin-1-yl)phenyl)Amino)pyrimidin-4-yl)amino)-5-cyclopropylphenyl)dimethylphosphine oxide] were, in that order, 543 nM, 0.3 nM and 9.7 nM.
With `COc1cc(N2CCC(N3CCN(C)CC3)CC2)ccc1Nc1ncc(Cl)c(Nc2ccc(C)cc2P(C)(C)=O)n1` [Control example 1, reference compound], the GI50 in data set [2] is 49.9 nM. Also, in data set [4], it took 2.7 nM to reach half-maximal inhibition (IC50).
